Reference: patent US6436921B1, “Carbapenem derivatives and a preparation method thereof” (Korea Institute of Science and Technology, priority 1997, dated 2002)
In brackets after ≈: the same amount, converted by molar mass.

How the values were obtained:
Enterobacter cloacae P99 = assay: Antibacterial activity test (agar dilution MIC); format: cell-based; conditions: for MIC: read-out: Minimum inhibitory concentration
Procedure: (§1) Gram-positive Streptococcus and Staphylococcus and Gram-negative Escherichia coli, Pseudomonas, Salmonella, Klebsiella and Enterobacter were selected for the test. After the cells were diluted and cultured in agar, the compounds of the present invention were treated to obtain the minimum inhibitory concentration in the units of μg/ml.

Escherichia coli TEM = assay: Antibacterial activity test (agar dilution MIC); format: cell-based; conditions: for MIC: Escherichia coli, read-out: Minimum inhibitory concentration
Procedure: as §1

[1] = tested on: Streptococcus pyogenes 308A; assay: Antibacterial activity test (agar dilution MIC); format: cell-based; conditions: for MIC: read-out: Minimum inhibitory concentration
Procedure: as §1

Escherichia coli DC2 = assay: Antibacterial activity test (agar dilution MIC); format: cell-based
Procedure: as §1

[2] = tested on: Staphylococcus aureus 503; assay: Antibacterial activity test (agar dilution MIC); format: cell-based; conditions: Staphylococcus aureus 503, agar; for MIC: read-out: Minimum inhibitory concentration
Procedure: as §1

[3] = tested on: Pseudomonas aeruginosa 1771M; assay: Antibacterial activity test (agar dilution MIC); format: cell-based; conditions: for MIC: Pseudomonas aeruginosa, 1771M, read-out: Minimum inhibitory concentration
Procedure: as §1

Klebsiella oxytoca 1082E = assay: Antibacterial activity test (agar dilution MIC); format: cell-based; conditions: for MIC: read-out: Minimum inhibitory concentration
Procedure: as §1

Escherichia coli 078 [4] = assay: Antibacterial activity test (agar dilution MIC); format: cell-based; conditions: Escherichia coli 078, agar; for MIC: read-out: Minimum inhibitory concentration
Procedure: as §1

[5] = tested on: Pseudomonas aeruginosa 1771; assay: Antibacterial activity test (agar dilution MIC); format: cell-based; conditions: Pseudomonas aeruginosa 1771, agar; for MIC: read-out: Minimum inhibitory concentration
Procedure: as §1

[6] = tested on: Pseudomonas aeruginosa 1592E; assay: Antibacterial activity test (agar dilution MIC); format: cell-based; conditions: for MIC: read-out: Minimum inhibitory concentration
Procedure: as §1

Escherichia coli DC0 = assay: Antibacterial activity test (agar dilution MIC); format: cell-based; conditions: for MIC: read-out: Minimum inhibitory concentration
Procedure: as §1

[7] = tested on: Pseudomonas aeruginosa 9027; assay: Antibacterial activity test (agar dilution MIC); format: cell-based; conditions: Pseudomonas aeruginosa 9027, agar; for MIC: read-out: Minimum inhibitory concentration
Procedure: as §1

[8] = tested on: Klebsiella aerogenes 1522E; assay: Antibacterial activity test (agar dilution MIC); format: cell-based; conditions: for MIC: read-out: Minimum inhibitory concentration
Procedure: as §1

Escherichia coli 1507E = assay: Antibacterial activity test (agar dilution MIC); format: cell-based; conditions: for MIC: read-out: Minimum inhibitory concentration
Procedure: as §1

[9] = tested on: Staphylococcus aureus 285; assay: Antibacterial activity test (agar dilution MIC); format: cell-based; conditions: Staphylococcus aureus 285, agar; for MIC: read-out: Minimum inhibitory concentration
Procedure: as §1

[10] = tested on: Staphylococcus aureus SG511; assay: Antibacterial activity test (agar dilution MIC); format: cell-based; conditions: for MIC: read-out: Minimum inhibitory concentration
Procedure: as §1

[11] = tested on: Streptococcus pyogenes 77A; assay: Antibacterial activity test (agar dilution MIC); format: cell-based; conditions: for MIC: read-out: Minimum inhibitory concentration
Procedure: as §1

[12] = tested on: Enterobacter cloacae 1321E; assay: Antibacterial activity test (agar dilution MIC); format: cell-based; conditions: for MIC: read-out: Minimum inhibitory concentration
Procedure: as §1

[13] = tested on: Streptococcus faecium MD8b; assay: Antibacterial activity test (agar dilution MIC); format: cell-based; conditions: for MIC: Enterococcus faecium, read-out: Minimum inhibitory concentration
Procedure: as §1

Salmonella typhimurium = assay: Antibacterial activity test (agar dilution MIC); format: cell-based; conditions: for MIC: Salmonella enterica, read-out: Minimum inhibitory concentration
Procedure: as §1

Escherichia coli 078 [14] = assay: PD50 test using mice; format: in vivo; set-up: PD50: unit not given beside the values; conditions: Escherichia coli 078
From the text: (§2) This means that ⅓ of the amount of the compound 10 has the same effect as meropenem.
(§3) Streptococcus pyrogenes A 77 and Escherichia coli 078 were selected as gram-positive and gram-negative strains, respectively.

[15] = tested on: Streptococcus pyrogenes A 77; assay: PD50 test using mice; format: in vivo; set-up: PD50: unit not given beside the values; conditions: Streptococcus pyrogenes A 77
From the text: as §2, §3

[16] = Bioavailability test, subcutaneous injection to mice; format: in vivo

Compound | MIC (Enterobacter cloacae P99) [µg/mL] | MIC (Escherichia coli TEM) [µg/mL] | MIC [1] [µg/mL] | MIC [2] [µg/mL] | MIC [3] [µg/mL] | MIC (Klebsiella oxytoca 1082E) [µg/mL] | MIC (Escherichia coli 078 [4]) [µg/mL] | MIC [5] [µg/mL] | MIC [6] [µg/mL] | MIC (Escherichia coli DC0) [µg/mL] | MIC [7] [µg/mL] | MIC [8] [µg/mL] | MIC (Escherichia coli 1507E) [µg/mL] | MIC [9] [µg/mL] | MIC [10] [µg/mL] | MIC [11] [µg/mL] | MIC [12] [µg/mL] | MIC [13] [µg/mL] | MIC (Salmonella typhimurium) [µg/mL] | other results
CNS(=O)(=O)CCNC(=O)[C@@H]1C[C@H](SC2=C(C(=O)O)N3C(=O)[C@H]([C@@H](C)O)[C@H]3[C@H]2C)CN1 [Compound 11] | 0.049 (≈ 0.103 µM) | 0.013 (≈ 0.0273 µM) | 0.013 (≈ 0.0273 µM) | 0.098 (≈ 0.206 µM) | 0.195 (≈ 0.409 µM) | 0.049 (≈ 0.103 µM) | 0.025 (≈ 0.0525 µM) | 0.195 (≈ 0.409 µM) | 0.195 (≈ 0.409 µM) | 0.025 (≈ 0.0525 µM) | 0.391 (≈ 0.82 µM) | 0.049 (≈ 0.103 µM) | 0.013 (≈ 0.0273 µM) | 0.195 (≈ 0.409 µM) | 0.098 (≈ 0.206 µM) | 0.004 (≈ 0.00839 µM) | 0.025 (≈ 0.0525 µM) | 6.25 (≈ 13.1 µM) | 0.025 (≈ 0.0525 µM) | MIC (Escherichia coli DC2; read-out: Minimum inhibitory concentration): 0.025 µg/mL (≈ 0.0525 µM)
C[C@@H](O)[C@H]1C(=O)N2C(C(=O)O)=C(S[C@@H]3CN[C@H](C(=O)NCCC(N)=O)C3)[C@H](C)[C@H]12 [Compound 1] | 0.049 (≈ 0.115 µM) | 0.025 (≈ 0.0586 µM) | 0.013 (≈ 0.0305 µM) | 0.098 (≈ 0.23 µM) | 0.391 (≈ 0.917 µM) | 0.098 (≈ 0.23 µM) | 0.025 (≈ 0.0586 µM) | 0.781 (≈ 1.83 µM) | 0.391 (≈ 0.917 µM) | 0.025 (≈ 0.0586 µM) | 0.391 (≈ 0.917 µM) | 0.049 (≈ 0.115 µM) | 0.025 (≈ 0.0586 µM) | 0.195 (≈ 0.457 µM) | 0.195 (≈ 0.457 µM) | 0.007 (≈ 0.0164 µM) | 0.025 (≈ 0.0586 µM) | 12.5 (≈ 29.3 µM) | 0.049 (≈ 0.115 µM) | –
C[C@@H](O)[C@H]1C(=O)N2C(C(=O)O)=C(S[C@@H]3CN[C@H](C(=O)N(C)C)C3)[C@H](C)[C@H]12 [meropenem, reference compound] | – | – | – | – | – | – | – | – | – | – | – | – | – | – | – | – | – | – | – | PD50 (Escherichia coli 078 [14]): 1.24; PD50 [15]: 7.16; Cmax [16]: 7600 ± 550 ng/mL; T1/2 [16]: 14.4 ± 13.2 min; Tmax [16]: 12.6 ± 2.4 min; AUC ([16]; mouse, in vivo, sc, AUC 0-2 hr): 3290 ± 290 ng·h/mL
C[C@@H](O)[C@H]1C(=O)N2C(C(=O)O)=C(S[C@@H]3CN[C@H](C(=O)NCCS(=O)(=O)NCCO)C3)[C@H](C)[C@H]12 [Compound 13] | – | – | – | – | – | – | – | – | – | – | – | – | – | – | – | – | – | – | – | Minimum inhibitory concentration (Enterobacter cloacae P99): 0.049 µg/mL (≈ 0.0967 µM); Minimum inhibitory concentration (Escherichia coli TEM; Escherichia coli TEM, agar): 0.013 µg/mL (≈ 0.0257 µM); Minimum inhibitory concentration [1]: 0.013 µg/mL (≈ 0.0257 µM); Minimum inhibitory concentration (Escherichia coli DC2): 0.025 µg/mL (≈ 0.0493 µM); Minimum inhibitory concentration [2]: 0.098 µg/mL (≈ 0.193 µM); Minimum inhibitory concentration ([3]; Pseudomonas aeruginosa 1771M, agar): 0.391 µg/mL (≈ 0.772 µM); Minimum inhibitory concentration (Klebsiella oxytoca 1082E): 0.049 µg/mL (≈ 0.0967 µM); Minimum inhibitory concentration (Escherichia coli 078 [4]): 0.013 µg/mL (≈ 0.0257 µM); Minimum inhibitory concentration [5]: 1.563 µg/mL (≈ 3.09 µM); Minimum inhibitory concentration [6]: 1.563 µg/mL (≈ 3.09 µM); Minimum inhibitory concentration (Escherichia coli DC0): 0.025 µg/mL (≈ 0.0493 µM); Minimum inhibitory concentration [7]: 1.563 µg/mL (≈ 3.09 µM); Minimum inhibitory concentration [8]: 0.025 µg/mL (≈ 0.0493 µM); Minimum inhibitory concentration (Escherichia coli 1507E): 0.025 µg/mL (≈ 0.0493 µM); Minimum inhibitory concentration [9]: 0.195 µg/mL (≈ 0.385 µM); Minimum inhibitory concentration [10]: 0.195 µg/mL (≈ 0.385 µM); Minimum inhibitory concentration [11]: 0.007 µg/mL (≈ 0.0138 µM); Minimum inhibitory concentration [12]: 0.013 µg/mL (≈ 0.0257 µM); Minimum inhibitory concentration [13]: 12.5 µg/mL (≈ 24.7 µM); Minimum inhibitory concentration (Salmonella typhimurium): 0.025 µg/mL (≈ 0.0493 µM)
